# Measurements taken from PubChem BioAssay (NCI).
#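 Each compound was tested at five concentrations against cells in 96-well plates for 48 hours. GI50 = concentration required for 50% inhibition of growth. TGI marks complete inhibition of growth.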
# Experiments:
# Experiment in all cases: NCI anticancer screen, dose series, 48 h
# [1] = tested on: DU-145 prostate
# [2] = tested on: LOX IMVI melanoma
# [3] = tested on: SNB-19 CNS
# [4] = tested on: CAKI-1 renal
# [5] = tested on: SK-OV-3 ovarian
# [6] = tested on: SR leukemia
# [7] = tested on: NCI/ADR-RES ovarian
# [8] = tested on: U251 CNS
# [9] = tested on: UACC-62 melanoma
# [10] = tested on: NCI-H522 lung
# [11] = tested on: SK-MEL-28 melanoma
# [12] = tested on: NCI-H460 lung
# [13] = tested on: NCI-H226 lung
# [14] = tested on: SK-MEL-5 melanoma
# [15] = tested on: MDA-MB-435
# [16] = tested on: COLO 205 colon
# [17] = tested on: CCRF-CEM leukemia
# [18] = tested on: HCC-2998 colon
# [19] = tested on: KM12 colon
# [20] = tested on: M14 melanoma
# [21] = tested on: RXF 393 renal
# [22] = tested on: UO-31 renal
# [23] = tested on: SNB-75 CNS
# [24] = tested on: SN12C renal
# [25] = tested on: HL-60(TB) leukemia
# [26] = tested on: OVCAR-3 ovarian
# [27] = tested on: A498 renal
# [28] = tested on: MALME-3M melanoma
# [29] = tested on: EKVX NSCLC
# [30] = tested on: HCT-15 colon
# [31] = tested on: RPMI-8226 leukemia
# [32] = tested on: HCT-116 colon
# [33] = tested on: IGROV1 ovarian
# [34] = tested on: K-562 leukemia
# [35] = tested on: OVCAR-4 ovarian
# [36] = tested on: NCI-H23 lung
# [37] = tested on: TK-10 renal
# [38] = tested on: SF-295 CNS
# [39] = tested on: MDA-MB-231 breast
# [40] = tested on: SK-MEL-2 melanoma
# [41] = tested on: HS 578T breast
# [42] = tested on: A549 NSCLC
# [43] = tested on: PC-3 prostate
# [44] = tested on: SF-539 CNS
# [45] = tested on: T-47D breast
# [46] = tested on: 786-0 renal
# [47] = tested on: HT29 colon
# [48] = tested on: SW-620 colon
# [49] = tested on: MCF7 breast
# [50] = tested on: BT-549 breast
# [51] = tested on: MOLT-4 leukemia
# [52] = tested on: UACC-257 melanoma
# [53] = tested on: SF-268 CNS
# [54] = tested on: OVCAR-8 ovarian
# [55] = tested on: HOP-62 NSCLC
# [56] = tested on: ACHN renal
# [57] = tested on: OVCAR-5 ovarian
# [58] = tested on: HOP-92 NSCLC
structure (smiles),measurement,setting,value
COC(=O)C1CCCN1C(=O)[C@@H]1CCCN1C(=O)[C@H](Cc1c[nH]c2ccccc12)NC(=S)Nc1cc(C(F)(F)F)cc(C(F)(F)F)c1 (stereo partly drawn),GI50,[1],2.52 µM
same,TGI,[1],6.47 µM
same,GI50,[2],1.91 µM
same,TGI,[2],4.28 µM
same,GI50,[3],2.7 µM
same,TGI,[3],12.1 µM
same,GI50,[4],2.73 µM
same,TGI,[4],11.1 µM
same,GI50,[5],2.95 µM
same,TGI,[5],11.4 µM
same,GI50,[6],1.92 µM
same,TGI,[6],5.03 µM
same,GI50,[7],3.85 µM
same,TGI,[7],22.1 µM
same,GI50,[8],1.67 µM
same,TGI,[8],3.81 µM
same,GI50,[9],1.7 µM
same,TGI,[9],4.08 µM
same,GI50,[10],2.15 µM
same,TGI,[10],4.99 µM
same,GI50,[11],3.54 µM
same,TGI,[11],10.7 µM
same,GI50,[12],1.94 µM
same,TGI,[12],3.79 µM
same,GI50,[13],2.26 µM
same,TGI,[13],8.01 µM
same,GI50,[14],2.63 µM
same,TGI,[14],7.61 µM
same,GI50,[15],3.03 µM
same,TGI,[15],12.4 µM
same,GI50,[16],1.72 µM
same,TGI,[16],3.21 µM
same,GI50,[17],2.75 µM
same,TGI,[17],8.55 µM
same,GI50,[18],1.96 µM
same,TGI,[18],4.5 µM
same,GI50,[19],1.92 µM
same,TGI,[19],4.03 µM
same,GI50,[20],2.19 µM
same,TGI,[20],5.23 µM
same,GI50,[21],1.78 µM
same,TGI,[21],4.4 µM
same,GI50,[22],3.63 µM
same,TGI,[22],14.5 µM
same,GI50,[23],2.48 µM
same,TGI,[23],8.92 µM
same,GI50,[24],2.82 µM
same,TGI,[24],10.5 µM
same,GI50,[25],2.35 µM
same,TGI,[25],5.95 µM
same,GI50,[26],2.03 µM
same,TGI,[26],3.85 µM
same,GI50,[27],2.15 µM
same,TGI,[27],6.65 µM
same,GI50,[28],3.35 µM
same,TGI,[28],12.7 µM
same,GI50,[29],1.91 µM
same,TGI,[29],7.83 µM
same,GI50,[30],3.41 µM
same,TGI,[30],12.8 µM
same,GI50,[31],2.93 µM
same,TGI,[31],8 µM
same,GI50,[32],1.72 µM
same,TGI,[32],3.34 µM
same,GI50,[33],3.34 µM
same,TGI,[33],10.9 µM
same,GI50,[34],2.92 µM
same,TGI,[34],13.3 µM
same,GI50,[35],3.18 µM
same,TGI,[35],11.2 µM
same,GI50,[36],2.78 µM
same,TGI,[36],10 µM
same,GI50,[37],2.11 µM
same,TGI,[37],5 µM
same,GI50,[38],1.77 µM
same,TGI,[38],4.08 µM
same,GI50,[39],1.62 µM
same,TGI,[39],3.4 µM
same,GI50,[40],2.24 µM
same,TGI,[40],4.25 µM
same,GI50,[41],3.1 µM
same,TGI,[41],11.4 µM
same,GI50,[42],1.98 µM
same,TGI,[42],6.92 µM
same,GI50,[43],1.91 µM
same,TGI,[43],5.32 µM
same,GI50,[44],2.43 µM
same,TGI,[44],5.85 µM
same,GI50,[45],1.98 µM
same,TGI,[45],7.2 µM
same,GI50,[46],2.52 µM
same,TGI,[46],6.86 µM
same,GI50,[47],1.89 µM
same,TGI,[47],3.44 µM
same,GI50,[48],3.68 µM
same,TGI,[48],12.6 µM
same,GI50,[49],2.19 µM
same,TGI,[49],6 µM
same,GI50,[50],2.88 µM
same,TGI,[50],8.03 µM
same,GI50,[51],2.04 µM
same,TGI,[51],8.62 µM
same,GI50,[52],2.4 µM
same,TGI,[52],8.17 µM
same,GI50,[53],3.46 µM
same,TGI,[53],13.6 µM
same,GI50,[54],1.92 µM
same,TGI,[54],4.2 µM
same,GI50,[55],2.17 µM
same,TGI,[55],6.5 µM
COC(=O)C1=C(C(=O)OC)SC(=C(Cl)C(=S)Nc2ccccc2O)S1,GI50,[1],15.7 µM
same,TGI,[1],> 50 µM
same,GI50,[2],12.9 µM
same,TGI,[2],24.5 µM
same,GI50,[3],18 µM
same,TGI,[3],> 50 µM
same,GI50,[4],9.63 µM
same,TGI,[4],21.8 µM
same,GI50,[5],20 µM
same,TGI,[5],> 50 µM
same,GI50,[6],26.1 µM
same,TGI,[6],> 50 µM
same,GI50,[7],14.1 µM
same,TGI,[7],35.1 µM
same,GI50,[8],12.2 µM
same,TGI,[8],30.5 µM
same,GI50,[9],8.84 µM
same,TGI,[9],18.6 µM
same,GI50,[10],10.3 µM
same,TGI,[10],23.3 µM
same,GI50,[56],16.3 µM
same,TGI,[56],> 50 µM
same,GI50,[11],> 50 µM
same,TGI,[11],> 50 µM
same,GI50,[12],11.5 µM
same,TGI,[12],> 50 µM
same,GI50,[13],13.9 µM
same,TGI,[13],39.3 µM
same,GI50,[14],19.1 µM
same,TGI,[14],> 50 µM
same,GI50,[15],3.82 µM
same,TGI,[15],17 µM
same,GI50,[16],16.2 µM
same,TGI,[16],> 50 µM
same,GI50,[17],> 50 µM
same,TGI,[17],> 50 µM
same,GI50,[19],0.132 µM
same,TGI,[19],> 50 µM
same,GI50,[20],0.352 µM
same,TGI,[20],12.7 µM
same,GI50,[57],11.6 µM
same,TGI,[57],31.5 µM
same,GI50,[21],11.7 µM
same,TGI,[21],29.5 µM
same,GI50,[22],14.4 µM
same,TGI,[22],39.2 µM
same,GI50,[23],33.7 µM
same,TGI,[23],> 50 µM
same,GI50,[24],9.69 µM
same,TGI,[24],19.7 µM
same,GI50,[25],16.6 µM
same,TGI,[25],> 50 µM
same,GI50,[26],7.41 µM
same,TGI,[26],22.8 µM
same,GI50,[28],21.7 µM
same,TGI,[28],> 50 µM
same,GI50,[30],17.7 µM
same,TGI,[30],> 50 µM
same,GI50,[31],33 µM
same,TGI,[31],> 50 µM
same,GI50,[32],0.143 µM
same,TGI,[32],> 50 µM
same,GI50,[34],22.6 µM
same,TGI,[34],> 50 µM
same,GI50,[35],35.5 µM
same,TGI,[35],> 50 µM
same,GI50,[58],40 µM
same,TGI,[58],> 50 µM
same,GI50,[36],6.67 µM
same,TGI,[36],20.1 µM
same,GI50,[37],7.05 µM
same,TGI,[37],23.9 µM
same,GI50,[38],6.57 µM
same,TGI,[38],24.9 µM
same,GI50,[39],10.6 µM
same,TGI,[39],25.9 µM
same,GI50,[40],10.3 µM
same,TGI,[40],22.2 µM
same,GI50,[41],31.6 µM
same,TGI,[41],> 50 µM
same,GI50,[42],21.2 µM
same,TGI,[42],> 50 µM
same,GI50,[43],22.2 µM
same,TGI,[43],> 50 µM
same,GI50,[44],15.9 µM
same,TGI,[44],39 µM
same,GI50,[45],17 µM
same,TGI,[45],> 50 µM
same,GI50,[46],0.686 µM
same,TGI,[46],10.1 µM
same,GI50,[47],30.2 µM
same,TGI,[47],> 50 µM
same,GI50,[48],26.4 µM
same,TGI,[48],> 50 µM
same,GI50,[49],8.57 µM
same,TGI,[49],25.7 µM
same,GI50,[50],2.34 µM
same,TGI,[50],35.5 µM
same,GI50,[51],46.8 µM
same,TGI,[51],> 50 µM
same,GI50,[52],12.4 µM
same,TGI,[52],26.3 µM
same,GI50,[53],10.2 µM
same,TGI,[53],23.6 µM
same,GI50,[54],25.3 µM
same,TGI,[54],> 50 µM
same,GI50,[55],0.354 µM
same,TGI,[55],11.2 µM
